The values below are quoted from earlier work in patent US20160378910A1, “MOLECULAR ACTIVE CENTER IDENTIFICATION USING TUNNELING BARRIERS AND/OR ASSOCIATED MEASUREMENTS FOR SUB-MOLECULAR QSAR” (Florida Institute of Technology, Inc., priority 2015, published 2016).

Molecules are shown by their SMILES.

The subject of this data set is W-2 strain of P. falciparum. As to conditions: W-2 strain of malaria (P. falciparum); rank among the twelve tryptanthrin analogs in the α3* lobe QSAR plot (FIG. 13).

`O=C1c2cc(I)ccc2-n2c1nc1c(O)nc(O)nc1c2=O` [1,3-diaza-2,4-hydroxy-8-iodotryptanthrin]: the IC50 entry was “highest”.
